Data set [1] addresses human acetyl-CoA carboxylase 2 (hACC2) (Homo sapiens, UniProt O00763). As to the kind of experiment: In vitro ACC enzyme inhibition (ADP luminescence), hACC2. The settings on record: human ACC2 enzyme; 15 min pre-incubation, 1 hour reaction at room temperature. The data set is classed as biochemical. As to the method:
(§1) The IC50 value was determined to evaluate the ability of the test compounds to inhibit acetyl-CoA carboxylase (ACC).
(§2) Protein: human acetyl-CoA carboxylase 1 (hACC1) and human acetyl-CoA carboxylase 2 (hACC2).
(§3) Cofactor: acetyl coenzyme A, ATP
(§4) Activator: potassium citrate
(§5) 1. 1 time of the enzyme/substrate/cofactor was added to the wells of the well plate.
(§6) 2. According to Acoustic technology, the solutions of the compounds in DMSO were added to the above enzyme mixture and the mixture was pre-incubated for 15 minutes.
(§7) 3. ATP was added to initiate the reaction and the mixture was shaken until thoroughly mixed.
(§8) 4. The mixture was incubated for 1 hour at room temperature.
(§9) 5. After quenching the reaction, the incubation continued for 40 minutes.
(§10) 6. After adding the detection reagents, the mixture was incubated for 30 minutes.
(§11) 8. Data analysis: based on the standard curve of ADP, the luminescence was converted into ADP product concentration and the enzyme activity was calculated. Graphpad Prism software was used to fit the curve to obtain the IC50 value.

For data set [2], the target named is human acetyl-CoA carboxylase 1 (hACC1) (Homo sapiens, UniProt Q13085). As to the kind of experiment: In vitro ACC enzyme inhibition (ADP luminescence), hACC1. The data set is classed as biochemical. Conditions: human ACC1 enzyme; 15 min pre-incubation, 1 hour reaction at room temperature. As for the experimental part:
as §1, §2, §3, §4, §5, §6, §7, §8, §9, §10, §11

In data set [3] the test system is NASH mouse model induced by HFD+CCl4. The data set is described as follows: In vivo pharmacodynamic study in NASH mouse model induced by HFD+CCl4. The settings on record: HFD+CCl4 mice; oral gavage QD Day 0-27; WX004B 0.5, 1, 3 mg/kg; reference I-181 3 mg/kg. From the text: The objective of this research is to study the effect of the compound on improving NASH and liver fibrosis in HFD+CCl4 mouse model, with 1-181 as the reference compound.
1-181 is an Acetyl-CoA carboxylase inhibitor and is currently undergoing a phase II clinical study on non-alcoholic fatty liver disease (NAFLD). The HFD+CCl4 mouse model used in this study is an animal model simulating human non-alcoholic fatty liver disease evolving into NASH, high-fat diet causes the fat accumulation and steatosis in liver cells; CCl4 (intraperitoneal injection, twice a week) simulates the “second hit” of liver injury.
The modeling for this experiment included two steps of high-fat feed and CCl4 induction. Firstly, the mice were fed with high-fat feed to induce non-alcoholic fatty liver, and mice with body weight >38 g were selected. The mice were continuously fed with high-fat feed, and simultaneously intraperitoneally injected with 25% CCl4, […], twice a week, for a total of four weeks. The day of starting CCl4 administration was set as day 0, and the time of starting CCl4 administration was set as hour 0. On the day of starting CCl4 administration, the intragastric administration was started, and the administration volume of each group was 5 mL/kg, once a day for 4 weeks (28 days). […]

The nature of data set [4]: Pharmacokinetics in C57BL/6 mice (iv and oral). The data set is classed as in vivo. Conditions: mouse, male C57BL/6 mice, plasma; for AUC(0-t) / clearance / half-life: iv 2.0 mg/kg, oral 10 mg/kg (route not given); for half-life: read-out: Half-life T1/2 (converted); for bioavailability: oral 10 mg/kg vs iv 2.0 mg/kg, read-out: Bioavailability F. As for the experimental part: Testing the pharmacokinetics characteristics of the compounds in C57BL/6 mice
C57BL/6 mice (male, 18-30 g, 7-9 weeks, Shanghai Lingchang Biotechnology Co., Ltd.)
The clear solution of the test compounds (0.5 mg/mL in 10% DMSO, 10% polyethylene glycol stearate, 80% water) was injected via tail vein into 4 male C57BL/6 mice (overnight fasted, 7-9 weeks), at a dose of 2.0 mg/kg. The suspensions or clear solutions of the test compounds (1 mg/mL in 10% PEG400, 90% (0.5% methylcellulose+0.2% Tween 80)) were administrated by oral gavage to 4 male C57BL/6 mice (overnight fasted, 7-9 weeks), at a dose of 10 mg/kg.
Two mice were set in each group and subjected to blood sampling alternatively, 4 to 5 time points per mouse. At 0.0833h (IV group only), 0.25 h, 0.5 h, 1.0 h, 2.0 h, 4.0 h, 6.0 h, 8.0 h, and 24 h after the intravenous or oral administration, about 30 μL of blood was collected by saphenous vein puncture and added into an anticoagulation tube with EDTA-K2, and the plasma was isolated by centrifugation. The drug plasma concentration was determined by LC-MS/MS, and WinNonlin™ Version 6.3 (Pharsight, Mountain View, Calif.) pharmacokinetic software was used to calculate relevant pharmacokinetic parameters using the non-compartmental model linear logarithmic trapezoidal method.

Chain of human acetyl-CoA carboxylase 2 (hACC2) (O00763 whole entry): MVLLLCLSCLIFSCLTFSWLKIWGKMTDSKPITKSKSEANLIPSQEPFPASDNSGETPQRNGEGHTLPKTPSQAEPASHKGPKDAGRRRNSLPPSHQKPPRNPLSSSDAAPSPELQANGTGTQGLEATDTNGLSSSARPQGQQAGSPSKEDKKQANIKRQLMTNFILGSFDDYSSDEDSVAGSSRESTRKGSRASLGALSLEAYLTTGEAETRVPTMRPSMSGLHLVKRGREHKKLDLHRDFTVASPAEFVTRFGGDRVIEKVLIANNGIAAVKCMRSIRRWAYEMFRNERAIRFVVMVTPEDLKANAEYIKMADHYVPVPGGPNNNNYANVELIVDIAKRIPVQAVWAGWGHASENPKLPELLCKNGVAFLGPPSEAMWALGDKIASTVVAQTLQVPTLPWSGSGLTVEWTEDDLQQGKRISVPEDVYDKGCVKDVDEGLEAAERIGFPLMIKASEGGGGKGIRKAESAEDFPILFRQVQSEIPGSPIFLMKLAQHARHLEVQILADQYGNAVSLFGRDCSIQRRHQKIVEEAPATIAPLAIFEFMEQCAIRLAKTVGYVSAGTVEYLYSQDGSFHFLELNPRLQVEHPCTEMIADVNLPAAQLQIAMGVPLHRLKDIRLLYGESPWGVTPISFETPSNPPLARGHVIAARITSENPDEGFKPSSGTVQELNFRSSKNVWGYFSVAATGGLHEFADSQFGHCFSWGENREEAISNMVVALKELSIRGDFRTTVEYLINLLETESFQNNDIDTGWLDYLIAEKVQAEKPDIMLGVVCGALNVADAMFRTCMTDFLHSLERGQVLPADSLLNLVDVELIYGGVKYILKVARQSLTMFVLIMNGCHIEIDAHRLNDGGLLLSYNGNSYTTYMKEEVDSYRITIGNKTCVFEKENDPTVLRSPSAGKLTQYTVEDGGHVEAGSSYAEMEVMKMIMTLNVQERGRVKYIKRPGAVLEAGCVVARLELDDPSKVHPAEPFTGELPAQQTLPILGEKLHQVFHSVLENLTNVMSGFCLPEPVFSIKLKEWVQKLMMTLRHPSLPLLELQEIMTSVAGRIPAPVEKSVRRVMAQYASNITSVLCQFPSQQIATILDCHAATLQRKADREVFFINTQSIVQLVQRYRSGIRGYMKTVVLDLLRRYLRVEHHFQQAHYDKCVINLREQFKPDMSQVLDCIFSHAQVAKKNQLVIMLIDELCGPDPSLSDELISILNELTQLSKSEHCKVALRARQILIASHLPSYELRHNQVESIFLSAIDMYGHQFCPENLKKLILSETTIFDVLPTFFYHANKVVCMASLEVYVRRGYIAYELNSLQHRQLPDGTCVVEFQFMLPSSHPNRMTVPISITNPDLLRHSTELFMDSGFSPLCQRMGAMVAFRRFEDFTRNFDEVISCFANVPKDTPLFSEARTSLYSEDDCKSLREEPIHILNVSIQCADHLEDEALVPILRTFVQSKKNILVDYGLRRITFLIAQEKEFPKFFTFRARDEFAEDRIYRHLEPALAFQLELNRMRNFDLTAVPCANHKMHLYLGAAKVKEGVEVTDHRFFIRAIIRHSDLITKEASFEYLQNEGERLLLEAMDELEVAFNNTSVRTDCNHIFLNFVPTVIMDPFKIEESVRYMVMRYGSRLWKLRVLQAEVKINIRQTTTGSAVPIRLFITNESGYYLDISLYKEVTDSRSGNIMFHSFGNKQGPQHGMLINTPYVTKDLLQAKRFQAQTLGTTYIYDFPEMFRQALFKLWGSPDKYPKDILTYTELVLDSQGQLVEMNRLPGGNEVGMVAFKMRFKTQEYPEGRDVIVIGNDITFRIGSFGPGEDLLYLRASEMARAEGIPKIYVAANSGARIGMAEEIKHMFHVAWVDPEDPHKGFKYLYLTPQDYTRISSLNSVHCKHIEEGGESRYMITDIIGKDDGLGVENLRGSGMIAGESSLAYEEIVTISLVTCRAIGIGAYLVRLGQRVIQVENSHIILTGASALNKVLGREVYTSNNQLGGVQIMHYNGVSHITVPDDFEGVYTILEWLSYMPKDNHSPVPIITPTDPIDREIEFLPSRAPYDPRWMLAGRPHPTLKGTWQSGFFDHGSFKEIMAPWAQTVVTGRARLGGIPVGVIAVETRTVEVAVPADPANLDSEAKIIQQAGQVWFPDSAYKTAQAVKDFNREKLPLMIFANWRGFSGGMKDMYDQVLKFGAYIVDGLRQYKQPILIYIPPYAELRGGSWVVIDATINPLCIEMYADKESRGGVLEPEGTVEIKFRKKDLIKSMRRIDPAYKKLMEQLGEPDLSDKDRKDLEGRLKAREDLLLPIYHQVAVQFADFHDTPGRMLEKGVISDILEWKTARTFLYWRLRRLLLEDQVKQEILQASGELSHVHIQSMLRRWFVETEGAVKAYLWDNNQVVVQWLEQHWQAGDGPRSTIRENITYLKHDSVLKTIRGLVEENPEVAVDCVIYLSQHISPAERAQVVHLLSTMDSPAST

The IC50 is the concentration that gives 50% inhibition. A low value points to greater potency. In the case of `COc1ccccc1C(Cn1nc(C(C)(C)C(=O)O)c(=O)c2c(C)c(-c3ncco3)sc21)OC1CCN(C(C)=O)CC1` (racemic) [WX011], the figures for the IC50 in data set [1] and in data set [2] were 10.9 nM and 26 nM, respectively.

Take `COc1ccccc1C(Cn1nc(C(C)(C)C(=O)O)c(=O)c2c(C)c(-c3ncco3)sc21)OC1CCN(S(C)(=O)=O)CC1` (racemic) [WX012]: the IC50 was found to be 5.7 nM in data set [1] and 14.2 nM in data set [2].

With `COC(=O)N1CCC(OC(Cn2nc(C(C)(C)C(=O)O)c(=O)c3c(C)c(-c4ncco4)sc32)c2ccccc2OC)CC1` (racemic) [WX015], the IC50 in data set [1] came out at 7 nM; in data set [2] it was 20.2 nM.

As to `COc1ccccc1C(Cn1nc(C2(C(=O)O)CCCC2)c(=O)c2c(C)c(-c3ncco3)sc21)OC1CCOCC1` (single isomer, unassigned) [WX001B], the figures for the IC50 in data set [1] and in data set [2] were 8 nM and 4.9 nM, respectively.

Take `COc1ccccc1C(Cn1nc(CC(=O)O)c(=O)c2c(C)c(-c3ncco3)sc21)OC1CCOCC1` (single isomer, unassigned) [WX003B]: the IC50 in data set [1] was determined as 3.4 nM; in data set [2], 10.9 nM.

For the compound `COc1ccccc1C(Cn1nc(CC(=O)O)c(=O)c2c(C)c(-c3ncco3)sc21)OC1CCOCC1` (stereo not drawn) [WX002], the IC50 in data set [1] came out at 8.7 nM; in data set [2], 53.6 nM.

In general, AUC(0-t) refers to the area under the concentration-time curve up to a stated or last time point. A high value points to high exposure. Take `COc1ccccc1[C@H](Cn1nc(C(C)(C)C(=O)O)c(=O)c2c(C)c(-c3ncco3)sc21)OC1CCOCC1` [WX004B]: in data set [3], the “Efficacy in NAS (anti-NASH effect)” value is “the same efficacy in both NAS and fibrosis as the reference compound at a higher dose”; the “Efficacy in fibrosis (anti-fibrosis effect)” value is “the same efficacy in both NAS and fibrosis as the reference compound at a higher dose”. Moreover, the AUC(0-t) in data set [4] turned out to be 7.21 µM·h.

In the case of `COc1ccccc1C(Cn1nc(C2(C(=O)O)CC2)c(=O)c2c(C)c(-c3ncco3)sc21)OC1CCOCC1` (stereo not drawn) [WX005], the IC50 in data set [1] is 45 nM; in data set [2], 46.6 nM.

For `COc1ccccc1C(Cn1nc(C2(C(=O)O)CCC2)c(=O)c2c(C)c(-c3ncco3)sc21)OC1CCOCC1` (stereo not drawn) [WX006], the IC50 is 22.1 nM in data set [1] and 20.3 nM in data set [2].

For the compound `COc1ccccc1[C@H](Cn1nc(C2(C(=O)O)CCCCC2)c(=O)c2c(C)c(-c3ncco3)sc21)OC1CCOCC1` [WX007B], the IC50 amounted to 12.6 nM in data set [1] and 9.1 nM in data set [2].

Broadly, the bioavailability is the share of a dose that reaches the circulation, judged against a reference dose that is usually intravenous. With `COc1ccccc1[C@H](Cn1nc(C2(C(=O)O)CCOCC2)c(=O)c2c(C)c(-c3ncco3)sc21)OC1CCOCC1` [WX008B], the IC50 in data set [1] is 13.9 nM. Besides, in data set [2], the IC50 is 5.3 nM. In data set [4], the clearance was found to be 51.9 mL/min/kg, the half-life is 36 min, the bioavailability was 5.86% and the AUC(0-t) was 0.304 µM·h.

`COc1ccccc1[C@H](Cn1nc(C(F)(F)C(=O)O)c(=O)c2c(C)c(-c3ncco3)sc21)OC1CCOCC1` [WX009B] displayed an IC50 in data set [1] of 11 nM. The same compound returned an IC50 in data set [2] of 5.6 nM. Further, in data set [4], the clearance came out at 92.1 mL/min/kg, the half-life is 36.6 min, the bioavailability came to 1.26% and the AUC(0-t) amounted to 0.04 µM·h.

Consider `COc1ccccc1C(Cn1nc(C2(C(=O)O)CCNCC2)c(=O)c2c(C)c(-c3ncco3)sc21)OC1CCOCC1` (stereo not drawn) [WX010], for which the figures for the IC50 in data set [1] and in data set [2] were 70.7 nM and 83.9 nM, respectively.

For `COc1ccccc1C(Cn1nc(C(C)(C)C(=O)O)c(=O)c2c(C)c(-c3ncco3)sc21)OC1CCN(C(=O)OC(C)(C)C)CC1` (stereo not drawn) [WX014], the IC50 in data set [1] was found to be 7.2 nM; in data set [2] it was 26 nM.

`COc1ccc(F)cc1[C@H](Cn1nc(C(C)(C)C(=O)O)c(=O)c2c(C)c(-c3ncco3)sc21)OC1CCOCC1` [WX016B]: the IC50 in data set [1] is 4.8 nM; in data set [2] it was 11.1 nM.
